The values that follow come from US8211828B2 (priority 2007, dated 2012).

In the first test the test system is Phytophthora infestans. In words: microbe, parasite or virus in culture. The format is cell-based. To be noted: 168 h, read-out: Observed effect (%).
With `Cc1nc2ncnn2c(N)c1CCC(C)CC(C)(C)C` (stereo not shown) [7-3], the inhibition of growth at 1 ppm is 31%.
With `CCCCCCCCc1c(C)nc2ncnn2c1N` [7-4], the inhibition of growth at 4 ppm stood at 45%.
As for `CCCCCCCCc1c(CC)nc2nc(N)nn2c1N` [7-5], the inhibition of growth at 0.25 ppm is 27% and the inhibition of growth at 4 ppm amounted to 73%.
Consider `CCCCCCCCc1c(CCC)nc2ncnn2c1N` [7-9], for which the inhibition of growth at 1 ppm was 20% and the inhibition of growth at 4 ppm came out at 58%.
For the molecule `CC(CCc1c(C(F)(F)F)nc2ncnn2c1N)CC(C)(C)C` (stereo not shown) [7-12], the inhibition of growth at 16 ppm is 66%.
As for `COc1cc(-c2ccccc2NC(=O)c2cn(C)nc2C(F)(F)F)c(F)cc1Cl` [Compound 3-1, N-(2′-fluoro-4′-chloro-5′-methoxybiphenyl-2-yl)-3-trifluoromethyl-1-methyl-1H-pyrazole-4-carboxamide], the inhibition of growth at 1 ppm stood at 0%, the inhibition of growth at 4 ppm came to 0% and the inhibition of growth at 16 ppm turned out to be 4%.
On to `Cn1cc(C(=O)Nc2ccccc2-c2cc(F)c(F)c(F)c2)c(C(F)(F)F)n1` [Compound 3-3, N-(3′,4′,5′-trifluorobiphenyl-2-yl)-3-trifluoromethyl-1-methyl-1H-pyrazole-4-carboxamide], for which the inhibition of growth at 0.25 ppm is 0%, the inhibition of growth at 1 ppm was 0% and the inhibition of growth at 4 ppm worked out at 0%.
Consider `COc1cc(-c2ccccc2NC(=O)c2cn(C)nc2C(F)F)c(F)cc1Cl` [Compound 3-6, N-(2′-fluoro-4′-chloro-5′-methoxybiphenyl-2-yl)-3-difluoromethyl-1-methyl-1H-pyrazole-4-carboxamide], for which the inhibition of growth at 1 ppm worked out at 0%, the inhibition of growth at 4 ppm amounted to 3% and the inhibition of growth at 16 ppm was found to be 18%.
Take `Cn1cc(C(=O)Nc2ccccc2-c2ccc(F)c(F)c2F)c(C(F)(F)F)n1` [Compound 3-7, N-(2′,3′,4′-trifluorobiphenyl-2-yl)-3-trifluoromethyl-1-methyl-1H-pyrazole-4-carboxamide]: the inhibition of growth at 1 ppm came out at 1% and the inhibition of growth at 4 ppm stood at 4%.
On to `Cc1cc(-c2ccccc2NC(=O)c2cn(C)nc2C(F)F)c(F)cc1Cl` [Compound 3-8, N-(2′-fluoro-4′-chloro-5′-methylbiphenyl-2-yl)-3-difluoromethyl-1-methyl-1H-pyrazole-4-carboxamide], for which the inhibition of growth at 4 ppm worked out at 10% and the inhibition of growth at 16 ppm stood at 20%.
Consider `Cn1cc(C(=O)Nc2ccccc2-c2cc(F)c(F)c(F)c2)c(C(F)F)n1` [Compound 3-9, N-(3′,4′,5′-trifluorobiphenyl-2-yl)-3-difluoromethyl-1-methyl-1H-pyrazole-4-carboxamide], for which the inhibition of growth at 4 ppm worked out at 9%.
Turning to `Cn1cc(C(=O)Nc2ccccc2-c2cc(F)c(F)cc2F)c(C(F)F)n1` [Compound 3-10, N-(2′,4′,5′-trifluorobiphenyl-2-yl)-3-difluoromethyl-1-methyl-1H-pyrazole-4-carboxamide], the inhibition of growth at 1 ppm came out at 1% and the inhibition of growth at 4 ppm was 6%.
As for `Cn1cc(C(=O)Nc2ccccc2-c2cc(F)c(F)c(F)c2)c(CF)n1` [Compound 3-11, N-(3′,4′,5′-trifluorobiphenyl-2-yl)-3-fluoromethyl-1-methyl-1H-pyrazole-4-carboxamide], the inhibition of growth at 1 ppm is 7% and the inhibition of growth at 16 ppm amounted to 9%.
In the case of `Cn1cc(C(=O)Nc2ccccc2-c2ccc(F)c(F)c2F)c(CF)n1` [Compound 3-14, N-(2′,3′,4′-trifluorobiphenyl-2-yl)-3-fluoromethyl-1-methyl-1H-pyrazole-4-carboxamide], the inhibition of growth at 1 ppm amounted to 3%, the inhibition of growth at 4 ppm is 11% and the inhibition of growth at 16 ppm is 18%.

In the next test the test system is Puccinia recondita. Kind of test: Curative activity against brown rust of wheat caused by Puccinia recondita (greenhouse). The format is in vivo. To be noted: single active compound, 0.25 ppm, control 90% infection. As for the experimental part: The expected efficacies of active compound combinations were determined using Colby's formula (Colby, S. R. “Calculating synergistic and antagonistic responses of herbicide combinations”, Weeds, 15, 20-22, 1967) and compared with the observed efficacies. Colby's formula: E=x+y−x·y/100 • E expected efficacy, expressed in % of the untreated control, when using the mixture of the active compounds A and B at the concentrations a and b; • x efficacy, expressed in % of the untreated control, when using the active compound A at the concentration a; • y efficacy, expressed in % of the untreated control, when using the active compound B at the concentration b. Micro Tests
The active compounds were separately or jointly prepared as a stock solution comprising 25 mg of active compound which was made up to 10 ml using a mixture of acetone and/or dimethyl sulfoxide and the emulsifier Uniperol® EL (wetting agent having emulsifying and dispersing action based on ethoxylated alkylphenols) in a volume ratio of solvent/emulsifier of 99 to 1. The mixture was then made up with water to 100 ml. This stock solution was diluted with the solvent/emulsifier/water mixture described to the concentration of active compound stated below.
Leaves of potted wheat seedlings were inoculated with a spore suspension of brown rust (Puccinia recondita). The pots were then placed in a chamber with high atmospheric humidity (90 to 95%) and 20 to 22° C. for 24 hours. During this time, the spores germinated and the germ tubes penetrated into the leaf tissue. The next day, the infected plants were sprayed to runoff point with the active compound solution described above at the active compound concentration stated below. After the spray coating had dried on, the test plants were cultivated in a greenhouse at temperatures between 20 and 22° C. and at 65 to 70% relative atmospheric humidity for 7 days. The extent of the rust fungus development on the leaves was then determined.
(§1) The visually determined percentages of infected leaf areas were converted into efficacies in % of the untreated control.
The efficacy (E) is calculated as follows using Abbot's formula: Abbot's formula: E=(1−α/β)·100 • α corresponds to the fungicidal infection of the treated plants in % and • β corresponds to the fungicidal infection of the untreated (control) plants in %
An efficacy of 0 means that the infection level of the treated plants corresponds to that of the untreated control plants; an efficacy of 100 means that the treated plants were not infected.
Turning to `Cn1cc(C(=O)Nc2ccccc2-c2cc(F)c(F)c(F)c2)c(C(F)F)n1` [Compound 3-9, N-(3′,4′,5′-trifluorobiphenyl-2-yl)-3-difluoromethyl-1-methyl-1H-pyrazole-4-carboxamide], the “Observed effect (%)” value worked out at 0%.

The test is the same for the next values; noted with them: single active compound, 1 ppm, control 90% infection.
With `CCCCCCCCc1c(CC)nc2nc(N)nn2c1N` [7-5], the “Observed effect (%)” value is recorded as 0%.
On to `CCCCCCCCc1nc2ncnn2c(N)c1CC` [7-6], for which the “Observed effect (%)” value was determined as 0%.
Same read-out and setting: the figure for `CCc1nc2ncnn2c(N)c1CCC(C)CC(C)(C)C` (stereo not shown) [7-8] is 0%.

A further test has as its system Puccinia recondita. In words: Protective activity against Puccinia recondita on wheat (brown rust of wheat) (greenhouse). It counts as in vivo. To be noted: single active compound, 0.25 ppm, control 80% infection. How it is done: The expected efficacies of active compound combinations were determined using Colby's formula (Colby, S. R. “Calculating synergistic and antagonistic responses of herbicide combinations”, Weeds, 15, 20-22, 1967) and compared with the observed efficacies. Colby's formula: E=x+y−x·y/100 • E expected efficacy, expressed in % of the untreated control, when using the mixture of the active compounds A and B at the concentrations a and b; • x efficacy, expressed in % of the untreated control, when using the active compound A at the concentration a; • y efficacy, expressed in % of the untreated control, when using the active compound B at the concentration b. Micro Tests […]
as §1
The efficacy (E) is calculated as follows using Abbot's formula: Abbot's formula: E=(1−α/β)·100 • α corresponds to the fungicidal infection of the treated plants in % and • β corresponds to the fungicidal infection of the untreated (control) plants in % […]
Leaves of potted wheat seedlings were sprayed to runoff point with an aqueous suspension having the active compound concentration stated below. […] The extent of the rust fungus development on the leaves was then determined visually.
As to `Cn1cc(C(=O)Nc2ccccc2-c2cc(F)c(F)c(F)c2)c(C(F)F)n1` [Compound 3-9, N-(3′,4′,5′-trifluorobiphenyl-2-yl)-3-difluoromethyl-1-methyl-1H-pyrazole-4-carboxamide], the “Observed effect (%)” value is given as 50%.

The same test, now with this note: single active compound, 1 ppm, control 80% infection.
Take `Cc1nc2ncnn2c(N)c1-c1ccc(Cl)c(Cl)c1` [7-1]: the “Observed effect (%)” value was 0%.
